Read-outs that look alike come from different tables or passages of the source.
Key:
[1] = 10 mL concentrate in 250 mL infusion diluent, cited from earlier work
[2] = Predicted shelf-life (t90) of meropenem from degradation kinetics; format: physicochemical
Description: The stability and degradation kinetics of meropenem have been studied. Meropenem is predicted to have a shelf-life (t90) of about 0.5 day at 0° C. Extrapolated to −25° C., the predicted shelf-life is less than one month. Meropenem also polymerizes at higher drug concentration by a second-order mechanism. If one requires a meropenem formulation that is ready-to-use, there is value in being able to stabilize these compounds in frozen aqueous media.

[3] = stored at or below −20° C.; cited from earlier work

**Q.** For `CCC(C)CC(C)CCCCCCCCC(=O)N[C@H]1C[C@@H](O)[C@@H](NCCN)NC(=O)[C@@H]2[C@@H](O)CCN2C(=O)[C@H]([C@H](O)CCN)NC(=O)[C@H]([C@H](O)[C@@H](O)c2ccc(O)cc2)NC(=O)[C@@H]2C[C@@H](O)CN2C(=O)[C@H]([C@@H](C)O)NC1=O` (some centres unmarked) [Caspofungin, Caspofungin acetate], which “Time within which the infusion solution must be used” value ([1]; stored at ≦25° C.) is on record?
**A.** Its value is ≤ 24 h.

**Q.** What about the “Time within which the infusion solution must be used” value ([1]; stored refrigerated at 2 to 8° C.) of the same compound?
**A.** The value was ≤ 48 h.

**Q.** With `C[C@@H](O)[C@H]1C(=O)N2C(C(=O)O)=C(S[C@@H]3CN[C@H](C(=O)N(C)C)C3)[C@H](C)[C@H]12` [Meropenem] as the compound, how does the “Predicted shelf-life (t90)” value ([2]; at 0° C.) read?
**A.** The value was “about 0.5 day”.

**Q.** And the Predicted shelf-life ([2]; extrapolated to −25° C.)?
**A.** Its Predicted shelf-life is “less than one”.

**Q.** With `CO/N=C(\C(=O)N[C@@H]1C(=O)N2C(C(=O)O)=C(CSc3nc(=O)c(=O)[nH]n3C)CS[C@H]12)c1csc(N)n1` [ceftriaxone sodium] as the compound, how does the “Time for which the frozen agent is stable” value [3] read?
**A.** The value was “at least 18 months”.

Reference: US8183233B2, “Stable pharmaceutical formulations” (Baxter International Inc., priority 2008, dated 2012)
